Literature values, collected in patent US5767071A, “Sevenmer cyclic peptide inhibitors of diseases involving αv β3” (IXSYS Incorporated, priority 1995, dated 1998).

Columns and labels:
[1] = test system: chicken embryo tumor model
[2] = molecular target: integrin αv β3 (Homo sapiens, UniProt P05106+P06756); conditions: binding and cell adhesion assays
[3] = test system: angiogenesis

Chain of integrin αv β3 (P06756 31-889 limits assumed): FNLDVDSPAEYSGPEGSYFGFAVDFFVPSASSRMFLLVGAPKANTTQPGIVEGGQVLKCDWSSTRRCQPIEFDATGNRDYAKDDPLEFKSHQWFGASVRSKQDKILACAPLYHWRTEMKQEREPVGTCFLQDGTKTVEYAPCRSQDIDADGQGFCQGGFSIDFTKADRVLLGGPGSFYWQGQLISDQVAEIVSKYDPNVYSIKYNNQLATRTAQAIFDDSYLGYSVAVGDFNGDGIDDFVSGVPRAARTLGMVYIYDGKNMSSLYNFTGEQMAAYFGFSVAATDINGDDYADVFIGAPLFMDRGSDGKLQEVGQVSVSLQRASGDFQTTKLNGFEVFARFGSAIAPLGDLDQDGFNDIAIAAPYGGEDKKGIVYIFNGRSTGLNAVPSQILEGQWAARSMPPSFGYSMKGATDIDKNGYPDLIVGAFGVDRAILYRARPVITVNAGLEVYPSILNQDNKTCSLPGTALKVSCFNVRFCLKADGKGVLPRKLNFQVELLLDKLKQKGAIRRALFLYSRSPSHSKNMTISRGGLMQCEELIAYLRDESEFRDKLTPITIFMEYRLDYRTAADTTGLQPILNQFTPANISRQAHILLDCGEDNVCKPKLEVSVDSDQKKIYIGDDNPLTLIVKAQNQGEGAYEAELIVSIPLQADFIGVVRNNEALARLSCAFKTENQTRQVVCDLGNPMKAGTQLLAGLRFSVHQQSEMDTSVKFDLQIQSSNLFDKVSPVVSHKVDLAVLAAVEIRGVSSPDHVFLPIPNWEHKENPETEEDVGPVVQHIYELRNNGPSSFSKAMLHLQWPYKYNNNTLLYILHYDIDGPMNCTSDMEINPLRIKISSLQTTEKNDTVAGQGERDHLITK
Chain of integrin αv β3 (P06756 891-1048 limits assumed): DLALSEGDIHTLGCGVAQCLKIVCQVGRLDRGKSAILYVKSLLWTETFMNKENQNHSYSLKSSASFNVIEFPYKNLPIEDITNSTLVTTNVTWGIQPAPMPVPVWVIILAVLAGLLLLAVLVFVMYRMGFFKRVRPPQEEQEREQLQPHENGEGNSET
Chain of integrin αv β3 (P05106 27-788): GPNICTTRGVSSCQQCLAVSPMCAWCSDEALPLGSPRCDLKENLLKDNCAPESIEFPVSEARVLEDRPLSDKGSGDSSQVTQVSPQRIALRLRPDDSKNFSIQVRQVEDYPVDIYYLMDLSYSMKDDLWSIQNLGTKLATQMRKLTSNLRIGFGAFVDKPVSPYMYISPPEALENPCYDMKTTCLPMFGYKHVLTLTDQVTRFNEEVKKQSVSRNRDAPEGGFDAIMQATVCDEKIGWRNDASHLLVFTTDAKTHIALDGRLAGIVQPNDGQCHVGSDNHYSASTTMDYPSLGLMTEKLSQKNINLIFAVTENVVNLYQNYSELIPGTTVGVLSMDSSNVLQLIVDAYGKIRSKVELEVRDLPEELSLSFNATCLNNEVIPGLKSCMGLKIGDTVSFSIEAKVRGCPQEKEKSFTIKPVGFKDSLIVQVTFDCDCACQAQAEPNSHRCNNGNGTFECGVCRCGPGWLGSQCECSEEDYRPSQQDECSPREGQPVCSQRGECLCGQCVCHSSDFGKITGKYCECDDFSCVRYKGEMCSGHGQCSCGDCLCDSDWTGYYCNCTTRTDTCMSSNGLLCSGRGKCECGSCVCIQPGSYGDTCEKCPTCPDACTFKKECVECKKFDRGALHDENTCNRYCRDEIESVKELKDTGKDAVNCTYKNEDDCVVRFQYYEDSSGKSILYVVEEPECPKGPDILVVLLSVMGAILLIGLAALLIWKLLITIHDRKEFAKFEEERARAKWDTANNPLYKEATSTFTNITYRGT

Q: With `CC(C)[C@@H]1NC(=O)[C@@H](Cc2ccccc2)NC(=O)[C@H](CC(=O)O)NC(=O)CNC(=O)[C@H](CCCN=C(N)N)NC1=O` [cyclo-RGDfv] as the compound, how does the “inhibition of angiogenesis / neovascularization” value [1] read?
A: inhibit the neovascularization process

Q: What does the source list for “ACPSRLDSPCG [RLD peptide from a literature phage library (Koivunen et al.)]”?
A: activity compared with an RGD peptide [2]: 100-1000 fold lower; selectivity for the integrin αv β3 [2]: only partially selective

Q: For Gly-Arg-Gly-Asp-Ser (GRGDS), which “inhibition of angiogenesis in vitro” value [3] is on record?
A: inhibits angiogenesis in vitro
